Reference: US8791145B2, “Agricultural formulations with acyl morpholines and polar aprotic co-solvents” (Akzo Nobel Chemicals International B.V., priority 2010, dated 2014)
Values belong to the molecule of their own block, whether it stands above or below them.

What was measured:
Format in all cases: physicochemical
[1] = Differential scanning calorimetry, enthalpy of evaporation; conditions: DSC 20° C. to 300° C., 5° C./minute
Experimental: To monitor the enthalpy of evaporation differential scanning calorimetry was used. The reason for these measurements was to determine the cohesion forces between N-formyl morpholine and propylene carbonate. The mixtures (N-formyl morpholine/propylene carbonate in different ratio) were scanned from 20° C. to 300° C. with a temperature increase of 5° C./minute, using a DSC1 calorimeter from Mettler Toledo with STARe software.

[2] = Dilution of Amicarbazone formulation in water, ocular inspection; parameters: key: +: No crystals; −: Permanent crystals; conditions: 100 g/L diluted to 7 g/L
Experimental: The co-solvents used were propylene carbonate (PC), dimethylformamide (DMF) and ethyl lactate (EL). The amount of each co solvent, in % by weight of the total weight of morpholine and co-solvent, can be seen in table 2. The solutions were diluted in local tap water to an end concentration of 7 g/L and the dilution was judged by ocular inspection with the naked eye, and in the table below the following is used: • + No crystals • − Permanent crystals

[3] = Solubility in acyl morpholines; conditions: 23° C.
Experimental: Various agriculturally active ingredients were dissolved in N-formyl morpholine, N-acetyl morpholine and N-propionyl morpholine in order to evaluate the solubility of the active ingredients in the solvents. This was done by adding the active ingredient to a beaker and thereafter adding the solvent until a clear solution was obtained. The solutions were continually stirred at a temperature of 23° C. during the experiments. When everything had been dissolved, the beakers were left without stirring for 24 h to see if the solution was stable (i.e. no crystallization).

SMILES: O=CN1CCOCC1 [100:0, 4-formyl morpholine]
Enthalpy of evaporation [1]: 382 J/g

SMILES: COc1c(Cl)ccc(Cl)c1C(=O)O [Dicamba]
Dissolution of active ingredient into N-acetyl morpholine (NAM) [3]: >100 grams of active ingredient in 100 g solvent | Dissolution of active ingredient into N-formyl morpholine (NFM) [3]: >100 grams of active ingredient in 100 g solvent | Dissolution of active ingredient into N-propionyl morpholine (NPM) [3]: >100 grams of active ingredient in 100 g solvent

SMILES: CC1(C)CCC(Cc2ccc(Cl)cc2)C1(O)Cn1cncn1 (centres unmarked) [Metconazole]
Dissolution of active ingredient into N-acetyl morpholine (NAM) [3]: >25 grams of active ingredient in 100 g solvent | Dissolution of active ingredient into N-formyl morpholine (NFM) [3]: >25 grams of active ingredient in 100 g solvent | Dissolution of active ingredient into N-propionyl morpholine (NPM) [3]: >25 grams of active ingredient in 100 g solvent

Other lines, results leading:

Enthalpy of evaporation [1]: 392 J/g
SMILES: CC1COC(=O)O1 (centres unmarked) [0:100, propylene carbonate]

Crystallization upon dilution in water ([2]; NAM, 0% DMF): − | Crystallization upon dilution in water ([2]; NAM, 0% EL): − | Crystallization upon dilution in water ([2]; NAM, 0% PC): − | Crystallization upon dilution in water ([2]; NAM, 5% DMF): − | Crystallization upon dilution in water ([2]; NAM, 5% EL): − | Crystallization upon dilution in water ([2]; NAM, 5% PC): − | Crystallization upon dilution in water ([2]; NAM, 10% DMF): − | Crystallization upon dilution in water ([2]; NAM, 10% EL): − | Crystallization upon dilution in water ([2]; NAM, 10% PC): − | Crystallization upon dilution in water ([2]; NAM, 20% DMF): − | Crystallization upon dilution in water ([2]; NAM, 20% EL): − | Crystallization upon dilution in water ([2]; NAM, 20% PC): − | Crystallization upon dilution in water ([2]; NAM, 30% DMF): − | Crystallization upon dilution in water ([2]; NAM, 30% EL): − | Crystallization upon dilution in water ([2]; NAM, 30% PC): − | Crystallization upon dilution in water ([2]; NAM, 50% DMF): − | Crystallization upon dilution in water ([2]; NAM, 50% EL): − | Crystallization upon dilution in water ([2]; NAM, 50% PC): − | Crystallization upon dilution in water ([2]; NAM, 95% DMF): + | Crystallization upon dilution in water ([2]; NAM, 95% EL): − | Crystallization upon dilution in water ([2]; NAM, 95% PC): − | Crystallization upon dilution in water ([2]; NFM, 0% DMF): − | Crystallization upon dilution in water ([2]; NFM, 0% EL): − | Crystallization upon dilution in water ([2]; NFM, 0% PC): − | Crystallization upon dilution in water ([2]; NFM, 5% DMF): − | Crystallization upon dilution in water ([2]; NFM, 5% EL): − | Crystallization upon dilution in water ([2]; NFM, 5% PC): − | Crystallization upon dilution in water ([2]; NFM, 10% DMF): − | Crystallization upon dilution in water ([2]; NFM, 10% EL): − | Crystallization upon dilution in water ([2]; NFM, 10% PC): − | Crystallization upon dilution in water ([2]; NFM, 20% DMF): − | Crystallization upon dilution in water ([2]; NFM, 20% EL): − | Crystallization upon dilution in water ([2]; NFM, 20% PC): + | Crystallization upon dilution in water ([2]; NFM, 30% DMF): − | Crystallization upon dilution in water ([2]; NFM, 30% EL): − | Crystallization upon dilution in water ([2]; NFM, 30% PC): − | Crystallization upon dilution in water ([2]; NFM, 50% DMF): − | Crystallization upon dilution in water ([2]; NFM, 50% EL): − | Crystallization upon dilution in water ([2]; NFM, 50% PC): − | Crystallization upon dilution in water ([2]; NFM, 95% DMF): + | Crystallization upon dilution in water ([2]; NFM, 95% EL): − | Crystallization upon dilution in water ([2]; NFM, 95% PC): −
SMILES: CC(C)c1nn(C(=O)NC(C)(C)C)c(=O)n1N [Amicarbazone]
